We go through eight molecules from patent US12570612B2, “Substituted nitrogen heterocyclic compound and anesthetic effect thereof” (priority 2019, dated 2026).

Each structure is given as a SMILES string. Bounds are passed on as bounds.

One data set deals with Sprague-Dawley rats.
Test: not given
The format is in vivo. The note with it: tail vein.
For the molecule `C[C@H](c1ccccc1)n1cncc1C(=O)COCC1CC1` [Compound C46], the Minimal lethal dose is on record as more than 11.8 mg/kg.

In the case of `CC1OC1C(=O)c1cncn1[C@H](C)c1ccccc1` (some centres unmarked) [Compound C56], the Minimal lethal dose was more than 13.61 mg/kg.

The molecule `CC#CCOCC(=O)c1c(F)ncn1[C@H](C)c1ccccc1` [Compound C69] returned a Minimal lethal dose of more than 4.2 mg/kg.

Molecule `CC(=O)COCC(=O)c1cc(F)nn1[C@H](C)c1ccccc1` [Compound C16] displayed a Minimal lethal dose of more than 17.0 mg/kg.

On to `C#CCOCC(=O)c1cncn1[C@H](C)c1ccccc1` [Compound C35], for which the Minimal lethal dose was more than 10.3 mg/kg.

Molecule `CCC(CC)OCC(=O)c1cncn1[C@H](C)c1ccccc1` [Compound C36] showed a Minimal lethal dose of more than 15.2 mg/kg.

Consider `COCC(=O)c1c(F)ncn1[C@H](C)c1ccccc1` [Compound C71], for which the Minimal lethal dose was more than 6.6 mg/kg.

`CC(=O)COCC(=O)c1cncn1[C@H](C)c1ccccc1` [Compound C51] showed a Minimal lethal dose of more than 12.5 mg/kg.

For the next data set, the system named is Sprague-Dawley rats. The data set can be described thus: animal or person. The note with it: LORR, up and down method, tail vein, rats; class symbols. The format is in vivo. The text has this: Evaluating indicator: The end point of anesthesia: LORR was used as the end point of anesthesia; General anesthesia effect: the disappearance of forepaw righting reflex in rats lasting for 30 seconds is taken as the index of general anesthesia effect; Anesthesia recovery index: the recovery of rat forepaw righting reflex was used as the index of anesthesia recovery.
Turning to `COCC(=O)c1c(F)ncn1[C@H](C)c1ccccc1` [Compound C71], the ED50 (usually the midpoint of the dose-response relation) is “++ (++ means that the measured ED50 is in the range of 0.50-1.00 mg/kg (excluding 0.50 mg/kg, including 1.00 mg/kg))”.

Staying with this data set, now noted: Rattus norvegicus; LORR, up and down method, tail vein, rats; class symbols; read-out: ED50.
As for `C[C@H](c1ccccc1)n1cncc1C(=O)COCC1CC1` [Compound C46], the ED50 lay within 2 to 10 mg/kg.

As for `CC1OC1C(=O)c1cncn1[C@H](C)c1ccccc1` (some centres unmarked) [Compound C56], the ED50 was 2 to 10 mg/kg.

In the case of `CC#CCOCC(=O)c1c(F)ncn1[C@H](C)c1ccccc1` [Compound C69], the ED50 lay in the range of 0.04 to 0.5 mg/kg.

As to `CC(=O)COCC(=O)c1cc(F)nn1[C@H](C)c1ccccc1` [Compound C16], the median effective dose (ED50) was 2 to 10 mg/kg.

For `C#CCOCC(=O)c1cncn1[C@H](C)c1ccccc1` [Compound C35], the ED50 fell in the range of 0.5 to 1 mg/kg.

With `CCC(CC)OCC(=O)c1cncn1[C@H](C)c1ccccc1` [Compound C36], the ED50 was in the range of 2 to 10 mg/kg.

On to `CC(=O)COCC(=O)c1cncn1[C@H](C)c1ccccc1` [Compound C51], for which the ED50 was in the range of 1 to 2 mg/kg.

The data set is the same for the next values; noted with them: rats.
The molecule `C[C@H](c1ccccc1)n1cncc1C(=O)COCC1CC1` [Compound C46] returned an Approximate therapeutic index of more than 2.4.

The molecule `CC1OC1C(=O)c1cncn1[C@H](C)c1ccccc1` (some centres unmarked) [Compound C56] had an Approximate therapeutic index of more than 16.6.

Take `CC#CCOCC(=O)c1c(F)ncn1[C@H](C)c1ccccc1` [Compound C69]: the Approximate therapeutic index is more than 19.2.

In turn, `C#CCOCC(=O)c1cncn1[C@H](C)c1ccccc1` [Compound C35] showed an Approximate therapeutic index of more than 12.9.

For `CCC(CC)OCC(=O)c1cncn1[C@H](C)c1ccccc1` [Compound C36], the Approximate therapeutic index is on record as more than 3.0.

The molecule `COCC(=O)c1c(F)ncn1[C@H](C)c1ccccc1` [Compound C71] returned an Approximate therapeutic index of more than 8.0.

`CC(=O)COCC(=O)c1cncn1[C@H](C)c1ccccc1` [Compound C51]: the Approximate therapeutic index is more than 8.3.

The test system of the next data set is Sprague-Dawley rats. The data set can be described thus: Pharmacological effect and adverse reactions under the equivalent dose (2ED50), Group C compounds. It counts as in vivo. Conditions: 2ED50, tail vein, rats, n=8. An excerpt:
Evaluation index: onset time: from the completion of drug injection to the disappearance of forepaw righting reflex in rats; Duration of anesthesia: the time from the disappearance of rat forepaw righting reflex to the recovery of rat forepaw righting reflex; Recovery time of anesthesia: the time from the […] to complete recovery;
For the molecule `C[C@H](c1ccccc1)n1cncc1C(=O)COCC1CC1` [Compound C46], the Righting reflex duration is 1.82 ± 0.64 min and the Sedation duration was determined as 5.63 ± 1.52 min.

Regarding `CC1OC1C(=O)c1cncn1[C@H](C)c1ccccc1` (some centres unmarked) [Compound C56], the Righting reflex duration is recorded as 1.49 ± 0.62 min and the Sedation duration turned out to be 5.32 ± 1.21 min.

In the case of `CC#CCOCC(=O)c1c(F)ncn1[C@H](C)c1ccccc1` [Compound C69], the Righting reflex duration was 1.91 ± 0.68 min and the Sedation duration was 6.28 ± 1.62 min.

With `CC(=O)COCC(=O)c1cc(F)nn1[C@H](C)c1ccccc1` [Compound C16], the Righting reflex duration worked out at 2.26 ± 0.81 min and the Sedation duration stood at 4.89 ± 0.98 min.

Turning to `C#CCOCC(=O)c1cncn1[C@H](C)c1ccccc1` [Compound C35], the Righting reflex duration is listed as 2.26 ± 0.81 min and the Sedation duration is listed as 4.89 ± 0.98 min.

For `CCC(CC)OCC(=O)c1cncn1[C@H](C)c1ccccc1` [Compound C36], the Righting reflex duration came to 4.02 ± 1.09 min and the Sedation duration is reported as 15.57 ± 4.94 min.

For `COCC(=O)c1c(F)ncn1[C@H](C)c1ccccc1` [Compound C71], the Righting reflex duration is listed as 2.00 ± 0.81 min and the Sedation duration amounted to 5.11 ± 1.64 min.

On to `CC(=O)COCC(=O)c1cncn1[C@H](C)c1ccccc1` [Compound C51], for which the Righting reflex duration was determined as 2.89 ± 0.68 min and the Sedation duration came to 4.62 ± 1.02 min.

The data set is the same for the next values; noted with them: 2ED50, tail vein, rats, n=8; unit min.
Take `CC1OC1C(=O)c1cncn1[C@H](C)c1ccccc1` (some centres unmarked) [Compound C56]: the Onset time is less than 60 s.

The data set is the same for the next values; noted with them: 2ED50, tail vein, rats, n=8; unit s.
In the case of `C[C@H](c1ccccc1)n1cncc1C(=O)COCC1CC1` [Compound C46], the Onset time is less than 30 s.

Regarding `CC#CCOCC(=O)c1c(F)ncn1[C@H](C)c1ccccc1` [Compound C69], the Onset time is reported as less than 30 s.

Take `CC(=O)COCC(=O)c1cc(F)nn1[C@H](C)c1ccccc1` [Compound C16]: the Onset time is reported as less than 30 s.

In the case of `C#CCOCC(=O)c1cncn1[C@H](C)c1ccccc1` [Compound C35], the Onset time is on record as less than 30 s.

Consider `CCC(CC)OCC(=O)c1cncn1[C@H](C)c1ccccc1` [Compound C36], for which the Onset time was less than 30 s.

Consider `COCC(=O)c1c(F)ncn1[C@H](C)c1ccccc1` [Compound C71], for which the Onset time is less than 30 s.

As to `CC(=O)COCC(=O)c1cncn1[C@H](C)c1ccccc1` [Compound C51], the Onset time is less than 30 s.

Still in this data set, the particulars now being: equivalent dose (2ED50), number of rats of n = 8.
As for `C[C@H](c1ccccc1)n1cncc1C(=O)COCC1CC1` [Compound C46], the “Adverse reaction: Convulsions” value is recorded as 0; the “Adverse reaction: Cough, broken-winded” value was found to be 0; the “Adverse reaction: Euphoria” value turned out to be 0; the “Adverse reaction: Red urine” value came to 8. Further, the “Adverse reaction: Slower breathing, Tetany convulsion” value (“Adverse reaction: Slower breathing” for short) was 0; the “Adverse reaction: Systemic stiffness, Convulsions, Opisthotonus” value (“Adverse reaction: Systemic stiffness” for short) is reported as 0; the “Adverse reaction: Tongue stretching” value is given as 1; the “Adverse reaction: Tremor” value was determined as 1. Moreover, the “Adverse reaction: the four limbs rigidity” value is recorded as 0.

Turning to `CC1OC1C(=O)c1cncn1[C@H](C)c1ccccc1` (some centres unmarked) [Compound C56], the “Adverse reaction: Convulsions” value is reported as 0; the “Adverse reaction: Cough, broken-winded” value came out at 0; the “Adverse reaction: Euphoria” value is given as 0; the “Adverse reaction: Red urine” value is given as 8. Also, the “Adverse reaction: Slower breathing” value is reported as 0; the “Adverse reaction: Systemic stiffness” value turned out to be 0; the “Adverse reaction: Tongue stretching” value is reported as 1; the “Adverse reaction: Tremor” value is given as 1. Further, the “Adverse reaction: the four limbs rigidity” value was found to be 0.

In the case of `CC#CCOCC(=O)c1c(F)ncn1[C@H](C)c1ccccc1` [Compound C69], the “Adverse reaction: Convulsions” value worked out at 0; the “Adverse reaction: Cough, broken-winded” value was found to be 0; the “Adverse reaction: Euphoria” value is reported as 0; the “Adverse reaction: Red urine” value turned out to be 8. In addition, the “Adverse reaction: Slower breathing” value is on record as 0; the “Adverse reaction: Systemic stiffness” value amounted to 1; the “Adverse reaction: Tongue stretching” value was determined as 0; the “Adverse reaction: Tremor” value worked out at 0. Further, the “Adverse reaction: the four limbs rigidity” value is listed as 0.

As to `CC(=O)COCC(=O)c1cc(F)nn1[C@H](C)c1ccccc1` [Compound C16], the “Adverse reaction: Convulsions” value came to 0; the “Adverse reaction: Cough, broken-winded” value was 0; the “Adverse reaction: Euphoria” value is 0; the “Adverse reaction: Red urine” value is recorded as 8. Also, the “Adverse reaction: Slower breathing” value was determined as 0; the “Adverse reaction: Systemic stiffness” value turned out to be 0; the “Adverse reaction: Tongue stretching” value is 1; the “Adverse reaction: Tremor” value came to 2. The “Adverse reaction: the four limbs rigidity” value came to 4.

Take `C#CCOCC(=O)c1cncn1[C@H](C)c1ccccc1` [Compound C35]: the “Adverse reaction: Convulsions” value was found to be 0; the “Adverse reaction: Cough, broken-winded” value amounted to 0; the “Adverse reaction: Euphoria” value is 0; the “Adverse reaction: Red urine” value was determined as 8. Moreover, the “Adverse reaction: Slower breathing” value is 0; the “Adverse reaction: Systemic stiffness” value worked out at 7; the “Adverse reaction: Tongue stretching” value is listed as 1; the “Adverse reaction: Tremor” value is 0. The “Adverse reaction: the four limbs rigidity” value was found to be 0.

Regarding `CCC(CC)OCC(=O)c1cncn1[C@H](C)c1ccccc1` [Compound C36], the “Adverse reaction: Convulsions” value is on record as 0; the “Adverse reaction: Cough, broken-winded” value is 0; the “Adverse reaction: Euphoria” value was found to be 0; the “Adverse reaction: Red urine” value came out at 8. The “Adverse reaction: Slower breathing” value turned out to be 0; the “Adverse reaction: Systemic stiffness” value amounted to 0; the “Adverse reaction: Tongue stretching” value was determined as 0; the “Adverse reaction: Tremor” value stood at 0. Besides, the “Adverse reaction: the four limbs rigidity” value came to 3.

In the case of `COCC(=O)c1c(F)ncn1[C@H](C)c1ccccc1` [Compound C71], the “Adverse reaction: Convulsions” value was determined as 2; the “Adverse reaction: Cough, broken-winded” value was found to be 0; the “Adverse reaction: Euphoria” value came to 0; the “Adverse reaction: Red urine” value came to 8. The “Adverse reaction: Slower breathing” value is recorded as 0; the “Adverse reaction: Systemic stiffness” value came out at 0; the “Adverse reaction: Tongue stretching” value came to 0; the “Adverse reaction: Tremor” value is 1. In addition, the “Adverse reaction: the four limbs rigidity” value is given as 1.

On to `CC(=O)COCC(=O)c1cncn1[C@H](C)c1ccccc1` [Compound C51], for which the “Adverse reaction: Convulsions” value is 0; the “Adverse reaction: Cough, broken-winded” value is 0; the “Adverse reaction: Euphoria” value amounted to 0; the “Adverse reaction: Red urine” value was 8. The “Adverse reaction: Slower breathing” value is on record as 0; the “Adverse reaction: Systemic stiffness” value is on record as 0; the “Adverse reaction: Tongue stretching” value amounted to 0; the “Adverse reaction: Tremor” value was 2. The “Adverse reaction: the four limbs rigidity” value is 0.
